Assay results as given in patent US20250059205A1, “Heterocyclic Compounds and Methods of Use” (AMGEN INC., priority 2021, published 2025).

Experiments:
[1] = target: His-tagged KRAS G12D protein (Homo sapiens, UniProt P01116, G12D); assay: KRAS G12D TR-FRET Assay; type: binding
[2] = target: GDP-bound KRAS protein (aa 1-169), containing both G12D and C118A amino acid substitutions (Homo sapiens, UniProt P01116, C118A/G12D); assay: KRAS G12D Coupled Nucleotide Exchange Assay; type: biochemical; details: 2 h compound pre-incubation
GDP-bound KRAS protein (aa 1-169), containing both G12D and C118A amino acid substitutions, sequence (P01116 1-169 isoform P01116-2 G12D/C118A): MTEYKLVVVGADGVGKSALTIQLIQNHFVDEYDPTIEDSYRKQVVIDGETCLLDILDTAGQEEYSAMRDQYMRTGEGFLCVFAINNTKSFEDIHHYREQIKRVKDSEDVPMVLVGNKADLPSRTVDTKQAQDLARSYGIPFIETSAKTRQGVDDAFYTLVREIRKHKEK
Description: Following compound pre-incubation, purified SOS protein (aa 564-1049) and GTP (Roche 10106399001) were added to the assay wells and incubated for an additional 30 min. […] The assay plates were then read on a PerkinElmer EnVision Multilabel Reader, using AlphaScreen® technology, and data were analyzed using a 4-parameter logistic model to calculate IC50 values.

[3] = system: Phosphorylation of ERK1/2 in A-427 cells; assay: Phospho-ERK1/2 MSD Assay (A-427 cells); type: cell-based; details: Homo sapiens, A-427, 2 h, 2 h treatment, read-out: p-ERK (A427 cells) IC50
How it was run: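 ERK1/2 phosphorylation measured by Meso Scale whole-cell lysate assay after A-427 cells were exposed to a titration of compound for 2 h at 37 °C.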

[4] = system: Phosphorylation of ERK1/2 in AsPC-1 cells; assay: Phospho-ERK1/2 MSD Assay (AsPC-1 cells); type: cell-based; details: Homo sapiens, ASPC1, 2 h, 2 hours treatment, read-out: p-ERK (AsPC-1 cells) IC50
How it was run: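 Read-out: MSD electrochemiluminescent detection of phosphorylated ERK1/2 in whole-cell lysates, fitted to a 4-parameter logistic curve for IC50. Prior to lysis, AsPC-1 cells (25,000 per well) received a 2 h compound dose-response at 37 °C.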

His-tagged KRAS G12D protein, sequence (P01116 1-188 isoform P01116-2 G12D): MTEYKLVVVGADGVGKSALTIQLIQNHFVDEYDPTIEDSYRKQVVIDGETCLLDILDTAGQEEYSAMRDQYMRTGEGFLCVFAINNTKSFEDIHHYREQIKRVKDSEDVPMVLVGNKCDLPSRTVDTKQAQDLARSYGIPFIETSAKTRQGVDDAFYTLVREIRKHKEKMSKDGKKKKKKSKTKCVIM

SMILES | IC50 [1] | Avg 2 h Coupled Exchange IC50 [2] | IC50 [3] | IC50 [4]
C#Cc1cccc2cc(O)cc(-c3c(F)cc4c(N5C[C@H]6C[C@@H](C5)N6)nc(OC[C@@]56CCCN5C[C@H](F)C6)nc4c3F)c12 [Example 183, 4-(4-((1R,5S)-3,6-diazabicyclo[3.1.1]heptan-3-yl)-6,8-difluoro-2-(((2R,7aS)-2-fluorotetrahydro-1H-pyrrolizin-7a(5H)-yl)methoxy)quinazolin-7-yl)-5-ethynylnaphthalen-2-ol] | 2 nM | 4 nM | 1480 nM | 5400 nM
Nc1cc(F)c(F)c(-c2c(F)cc3c(N4CC5CCC(C4)N5)nc(OC[C@@]45CCCN4C[C@H](F)C5)nc3c2F)c1 [Example 118] | 140 nM | 39 nM | 6780 nM | 4950 nM
N#Cc1cccc2cccc(-c3c(F)cc4c(N5C[C@H]6CC[C@@H](C5)N6)nc(OC[C@@]56CCCN5C[C@H](F)C6)nc4c3F)c12 [Example 60, 8-(4-((1R,5S)-3,8-diazabicyclo[3.2. 1]octan-3-yl)-6,8-difluoro-2-(((2R,7aS)-2-fluorotetrahydro-1H-pyrrolizin-7a(5H)-yl)methoxy)quinazolin-7-yl)-1-naphthonitrile] | 8 nM | 4 nM | 530 nM | 418 nM
Oc1cc(-c2ccc3c(N4[C@@H]5CNC[C@H]4COC5)nc(OC[C@@]45CCCN4C[C@H](F)C5)nc3c2F)c2ccccc2c1 [Example 2, 4-(4-((1R,5S)-3-oxa-7,9-diazabicyclo[3.3. 1]nonan-9-yl)-8-fluoro-2-(((2R,7aS)-2-fluorotetrahydro-1H-pyrrolizin-7a(5H)-yl)methoxy)quinazolin-7-yl)naphthalen-2-ol] | 7 nM | 4 nM | 222 nM | 721 nM
CCc1cccc2cccc(-c3ccc4c(N5C[C@H]6CC[C@@H](C5)N6)nc(OC[C@@]56CCCN5C[C@H](F)C6)nc4c3F)c12 [Example 54, 4-((1R,5S)-3,8-diazabicyclo[3.2. 1]octan-3-yl)-7-(8-ethylnaphthalen-1-yl)-8-fluoro-2-(((2R,7aS)-2-fluorotetrahydro-1H-pyrrolizin-7a(5H)-yl)methoxy) quinazoline] | 4 nM | 3 nM | 795 nM | 1220 nM
Oc1cc(-c2c(F)cc3c(N4C[C@@H]5CC[C@H]4CN5)nc(OC[C@@]45CCCN4C[C@H](F)C5)nc3c2F)c2ccccc2c1 [Example 48, 4-(4-((1S,4S)-2,5-diazabicyclo[2.2. 2]octan-2-yl)-6,8-difluoro-2-(((2R,7aS)-2-fluorotetrahydro-1H-pyrrolizin-7a(5H)-yl)methoxy)quinazolin-7-yl)naphthalen-2-ol] | 4 nM | 4 nM | 43 nM | 157 nM
Fc1c(-c2c(C(F)(F)F)ccc3[nH]ncc23)ccc2c(N3C[C@H]4CC[C@@H](C3)N4)nc(OC[C@@]34CCCN3C[C@H](F)C4)nc12 [Example 194, 4-((1R,5S)-3,8-diazabicyclo[3.2.1]octan-3-yl)-8-fluoro-2-(((2R,7aS)-2-fluorotetrahydro-1H-pyrrolizin-7a(5H)-yl)methoxy)-7-(5-(trifluoromethyl)-1H-indazol-4-yl)quinazoline] | 14 nM | 10 nM | 843 nM | 815 nM
Oc1cc(-c2c(F)cc3c(N4C[C@H]5C[C@@H](C4)N5)nc(OC[C@@]45CCCN4C[C@H](F)C5)nc3c2F)c2ccccc2c1 [Example 13, 4-(4-((1R,5S)-3,6-diazabicyclo[3.1. 1]heptan-3-yl)-6,8-difluoro-2-(((2R,7aS)-2-fluorotetrahydro-1H-pyrrolizin-7a(5H)-yl)methoxy)quinazolin-7-yl)naphthalen-2-ol] | 7 nM | 6 nM | 238 nM | 1730 nM
Cc1cccc2cccc(-c3ccc4c(N5[C@@H]6CC[C@H]5CNC6)nc(OC[C@@]56CCCN5C[C@H](F)C6)nc4c3F)c12 [Example 28, 4-((1R,5S)-3,8-diazabicyclo[3.2. 1]octan-8-yl)-8-fluoro-2-(((2R,7aS)-2-fluorotetrahydro-1H-pyrrolizin-7a(5H)-yl)methoxy)-7-(8-methylnaphthalen-1-yl)quinazoline] | 90 nM | 44 nM | > 10000 nM | 3610 nM
Fc1c(-c2cccc3cccc(Cl)c23)ccc2c(N3C[C@H]4CC[C@@H](C3)N4)nc(OC[C@@]34CCCN3C[C@H](F)C4)nc12 [Example 55, 4-((1R,5S)-3,8-diazabicyclo[3.2. 1]octan-3-yl)-7-(8-chloronaphthalen-1-yl)-8-fluoro-2-(((2R,7aS)-2-fluorotetrahydro-1H-pyrrolizin-7a(5H)-yl)methoxy) quinazoline] | 8 nM | 7 nM | 1150 nM | 1660 nM
Oc1cc(-c2cc3nc(OC[C@@]45CCCN4C[C@H](F)C5)nc(N4C[C@H]5CC[C@@H](C4)N5)c3cc2F)c2c(F)c(F)ccc2c1 [Example 82, 4-(4-((1R,5S)-3,8-diazabicyclo[3.2. 1]octan-3-yl)-6-fluoro-2-(((2R,7aS)-2-fluorotetrahydro-1H-pyrrolizin-7a(5H)-yl)methoxy)quinazolin-7-yl)-5,6-difluoronaphthalen-2-ol] | 2 nM | 2 nM | 42 nM | 138 nM
Oc1cc(-c2c(F)cc3c(N4C[C@H]5CC[C@@H](C4)N5)nc(OC[C@@]45CCCN4C[C@H](F)C5)nc3c2F)c2c(F)c(F)ccc2c1 [Example 84, 4-(4-((1R,5S)-3,8-diazabicyclo[3.2. 1]octan-3-yl)-6,8-difluoro-2-(((2R,7aS)-2-fluorotetrahydro-1H-pyrrolizin-7a(5H)-yl)methoxy)quinazolin-7-yl)-5,6-difluoronaphthalen-2-ol] | 4 nM | 4 nM | 5 nM | 22 nM
CCc1cccc2cc(O)cc(-c3cc4nc(OC[C@@]56CCCN5C[C@H](F)C6)nc(N5C[C@H]6CC[C@@H](C5)N6)c4cc3F)c12 [Example 171, 4-(4-((1R,5S)-3,8-diazabicyclo[3.2.1]octan-3-yl)-6-fluoro-2-(((2R,7aS)-2-fluorotetrahydro-1H-pyrrolizin-7a(5H)-yl)methoxy)quinazolin-7-yl)-5-ethylnaphthalen-2-ol] | 6 nM | 3 nM | 42 nM | 169 nM
CCc1cccc2cc(O)cc(-c3ccc4c(N5[C@@H]6CC[C@H]5CNC6)nc(OC[C@@]56CCCN5C[C@H](F)C6)nc4c3C)c12 [Example 160, 4-(4-((1R,5S)-3,8-diazabicyclo[3.2.1]octan-8-yl)-2-(((2R,7aS)-2-fluorotetrahydro-1H-pyrrolizin-7a(5H)-yl)methoxy)-8-methylquinazolin-7-yl)-5-ethylnaphthalen-2-ol] | 5 nM | 6 nM | 410 nM | 754 nM
C#Cc1c(F)ccc2cc(O)cc(-c3cc4nc(OC[C@@]56CCCN5C[C@H](F)C6)nc(N5C[C@H]6CC[C@@H](C5)N6)c4cc3F)c12 [Example 181, 4-(4-((1R,5S)-3,8-diazabicyclo[3.2.1]octan-3-yl)-6-fluoro-2-(((2R,7aS)-2-fluorotetrahydro-1H-pyrrolizin-7a(5H)-yl)methoxy)quinazolin-7-yl)-5-ethynyl-6-fluoronaphthalen-2-ol] | 1 nM | 1 nM | 3 nM | 18 nM
Nc1cc(-c2c(F)cc3c(N4C[C@@H]5CC[C@H]4CN5)nc(OC[C@@]45CCCN4C[C@H](F)C5)nc3c2F)c2ccccc2c1 [Example 117, 4-(4-((1S,4S)-2,5-diazabicyclo[2.2.2]octan-2-yl)-6,8-difluoro-2-(((2R,7aS)-2-fluorotetrahydro-1H-pyrrolizin-7a(5H)-yl)methoxy)quinazolin-7-yl)naphthalen-2-amine] | 13 nM | 7 nM | 411 nM | 899 nM
Cc1c(-c2cc(O)cc3cccc(Cl)c23)ccc2c(N3C[C@H]4CC[C@@H](C3)N4)nc(OC[C@@]34CCCN3C[C@H](F)C4)nc12 [Example 57, 4-(4-((1R,5S)-3,8-diazabicyclo[3.2. 1]octan-3-yl)-2-(((2R,7aS)-2-fluorotetrahydro-1H-pyrrolizin-7a(5H)-yl)methoxy)-8-methylquinazolin-7-yl)-5-chloronaphthalen-2-ol] | 5 nM | 3 nM | 222 nM | 213 nM
Oc1cc(-c2ccc3c(N4C[C@@H]5CC[C@H]4CN5)nc(OC[C@@]45CCCN4C[C@H](F)C5)nc3c2F)c2ccccc2c1 [Example 45, 4-(4-((1S,4S)-2,5-diazabicyclo[2.2. 2]octan-2-yl)-8-fluoro-2-(((2R,7aS)-2-fluorotetrahydro-1H-pyrrolizin-7a(5H)-yl)methoxy)quinazolin-7-yl)naphthalen-2-ol] | 4 nM | 2 nM | 25 nM | 190 nM
